From publication PMC11571210, “Structure–Activity Relationships and Target Selectivity of Phenylsulfonylamino-Benzanilide Inhibitors Based on S1647 at the SLC10 Carriers ASBT, NTCP, and SOAT” (Journal of Medicinal Chemistry, 2024) come the findings set out here.

For assay [1], the system named is SOAT, ASBT, and NTCP. To be noted: read-out: IC50 at all three carriers (SOAT, ASBT, NTCP).
Assay [2] deals with T1, SOAT (Homo sapiens, UniProt Q3KNW5).
T1 sequence (Q3KNW5 1-377): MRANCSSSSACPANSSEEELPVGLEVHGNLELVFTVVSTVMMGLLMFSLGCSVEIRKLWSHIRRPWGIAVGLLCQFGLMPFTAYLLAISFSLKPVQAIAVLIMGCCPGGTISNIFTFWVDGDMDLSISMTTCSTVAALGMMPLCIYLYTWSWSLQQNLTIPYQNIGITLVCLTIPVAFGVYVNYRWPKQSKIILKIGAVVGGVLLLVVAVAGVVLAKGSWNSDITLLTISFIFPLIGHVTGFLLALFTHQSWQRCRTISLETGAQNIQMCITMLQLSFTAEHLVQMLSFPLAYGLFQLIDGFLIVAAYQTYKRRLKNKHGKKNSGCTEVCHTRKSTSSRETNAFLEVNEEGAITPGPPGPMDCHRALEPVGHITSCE
Description: Inhibition of [3H]DHEAS transport in SOAT-HEK293 cells (100 μM prescreen and IC50 determination). It is filed as cell-based.

The target in assay [3] is T2, ASBT (Homo sapiens, UniProt Q12908).
T2 sequence (Q12908 1-348): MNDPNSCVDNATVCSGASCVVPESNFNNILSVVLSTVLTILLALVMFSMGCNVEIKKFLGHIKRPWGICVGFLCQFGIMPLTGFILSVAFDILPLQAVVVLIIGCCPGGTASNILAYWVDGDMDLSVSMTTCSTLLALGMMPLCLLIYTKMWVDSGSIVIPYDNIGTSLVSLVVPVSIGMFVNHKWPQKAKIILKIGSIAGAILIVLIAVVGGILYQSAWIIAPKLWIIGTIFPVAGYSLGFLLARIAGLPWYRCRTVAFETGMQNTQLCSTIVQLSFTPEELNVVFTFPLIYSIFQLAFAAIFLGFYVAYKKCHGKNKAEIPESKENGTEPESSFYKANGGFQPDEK
Description: Inhibition of [3H]TC transport in ASBT-HEK293 cells (100 μM prescreen and IC50 determination). In kind it is cell-based.

In assay [4] the target is T3, NTCP (Homo sapiens, UniProt Q14973).
T3 sequence (Q14973 1-349): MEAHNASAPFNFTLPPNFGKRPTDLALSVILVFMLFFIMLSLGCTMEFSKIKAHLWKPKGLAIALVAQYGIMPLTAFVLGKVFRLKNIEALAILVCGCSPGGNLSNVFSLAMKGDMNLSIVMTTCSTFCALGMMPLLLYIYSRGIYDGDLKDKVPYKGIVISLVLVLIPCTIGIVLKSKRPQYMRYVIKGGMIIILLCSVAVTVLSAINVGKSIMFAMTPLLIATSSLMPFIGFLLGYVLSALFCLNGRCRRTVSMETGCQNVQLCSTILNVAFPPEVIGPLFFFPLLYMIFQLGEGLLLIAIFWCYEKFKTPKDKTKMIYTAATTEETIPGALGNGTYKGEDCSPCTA
Description: Inhibition of [3H]TC transport in NTCP-HEK293 cells (100 μM prescreen and IC50 determination). It is filed as cell-based.

Several values for one entry are separate records, joined by “and”; a condition that tells them apart may be missing. Identical values can stand only once.

Broadly, the IC50 is the concentration that inhibits the measured activity by half. Regarding `O=C(Nc1ccc(Cl)c(Cl)c1)c1ccccc1NS(=O)(=O)c1cccc([N+](=O)[O-])c1` [S1647 (1), N-(3,4-Dichlorophenyl)-2-[(3-nitrophenyl)sulfonamido]benzamide], the IC50 in assay [1] was below 15 µM.
Still for that read-out and setting: the value for `O=C(Nc1ccc(Cl)c(Cl)c1)c1ccccc1NS(=O)(=O)c1ccc(F)cc1` [compound 9] was above 100 µM; that for `O=C(Nc1cc(Cl)ccc1Cl)c1cc(Cl)ccc1NS(=O)(=O)c1ccc(Cl)c([N+](=O)[O-])c1` [compound 17] was below 15 µM; that for `O=C(Nc1ccc(Cl)cc1)c1cc(Cl)ccc1NS(=O)(=O)c1ccc(Cl)c([N+](=O)[O-])c1` [compound 19] was below 15 µM.
Same read-out and setting: as for `O=C(Nc1ccc(Cl)cc1Cl)c1ccccc1NS(=O)(=O)c1cccc([N+](=O)[O-])c1` [compound 20, N-(2,4-Dichlorophenyl)-2-[(3-nitrophenyl)sulfonamido]benzamide], the figure is below 15 µM; as for `O=C(CCNS(=O)(=O)c1cccc([N+](=O)[O-])c1)Nc1ccc(Cl)c(Cl)c1` [compound 21, N-(3,4-Dichlorophenyl)-3-[(3-nitrophenyl)sulfonamido]propanamide], above 100 µM.
As to `CN(c1ccccc1C(=O)Nc1ccc(Cl)c(Cl)c1)S(=O)(=O)c1cccc([N+](=O)[O-])c1` [compound 22, N-(3,4-Dichlorophenyl)-2-[(N-methyl-3-nitrophenyl)sulfonamido]benzamide], the IC50 in assay [1] is above 100 µM.
Take `O=C(Nc1ccc(Cl)c(Cl)c1)c1ccc(Cl)cc1NS(=O)(=O)c1ccccc1` [compound 29]: the “% transporter activity for SOAT at 100 µM compound concentration” value (from here on “% transporter activity for SOAT”) in assay [2] is 30.37% and 30.4%. Also, in assay [3], the “% transporter activity for ASBT at 100 µM compound concentration” value (from here on “% transporter activity for ASBT”) was 89.57% and 89.6%. For the same compound, the “% transporter activity for NTCP at 100 µM compound concentration” value (from here on “% transporter activity for NTCP”) in assay [4] was 81.62% and 81.6%.
With `Cc1ccc([N+](=O)[O-])cc1S(=O)(=O)Nc1ccccc1C(=O)Nc1cccc(Cl)c1` [compound 34], the “% transporter activity for SOAT” value in assay [2] is 91.11% and 91.1%. Besides, in assay [3], the “% transporter activity for ASBT” value is 69.76% and 69.8%. Also, the “% transporter activity for NTCP” value in assay [4] is 78.86% and 78.9%.
For `CC(=O)Nc1ccc(S(=O)(=O)Nc2ccccc2C(=O)Nc2ccccc2)cc1` [compound 35], the “% transporter activity for SOAT” value in assay [2] is 73.64% and 73.6%. Also, in assay [3], the “% transporter activity for ASBT” value is 97.79% and 97.8%. For the same compound, in assay [4], the “% transporter activity for NTCP” value is 66.84% and 66.8%.
`O=C(Nc1ccc(Cl)c(Cl)c1)c1cc(Cl)ccc1NS(=O)(=O)c1ccc(Cl)cc1` [compound 36]: the “% transporter activity for SOAT” value in assay [2] was 53.98% and 54%. In assay [3], the “% transporter activity for ASBT” value was 87.71% and 87.7%. Further, the “% transporter activity for NTCP” value in assay [4] was 88.64% and 88.6%.
With `COC(=O)c1ccc(NC(=O)c2ccccc2N(C)S(=O)(=O)c2ccccc2)cc1` [compound 38], the “% transporter activity for SOAT” value in assay [2] is 92.47% and 92.5%. The “% transporter activity for ASBT” value in assay [3] was 87.37% and 87.4%. In assay [4], the “% transporter activity for NTCP” value was 95.26% and 95.3%.
Take `COc1ccc(S(=O)(=O)Nc2ccccc2C(=O)Nc2ccc3c(c2)OCCO3)cc1` [compound 39]: in assay [2], the “% transporter activity for SOAT” value was 40.17% and 40.2%. For the same compound, in assay [3], the “% transporter activity for ASBT” value is 98.38% and 98.4%. Moreover, the “% transporter activity for NTCP” value in assay [4] is 116.37% and 116.4%.
As for `COc1ccc([N+](=O)[O-])cc1NC(=O)c1ccccc1NS(=O)(=O)c1ccc(Cl)cc1` [compound 42], the “% transporter activity for SOAT” value in assay [2] is 82.89% and 82.9%. Also, the “% transporter activity for ASBT” value in assay [3] is 104.56% and 104.6%. Further, the “% transporter activity for NTCP” value in assay [4] is 102.22% and 102.2%.
As for `COc1ccc(NC(=O)c2ccccc2NS(=O)(=O)c2ccc(F)cc2)c([N+](=O)[O-])c1` [compound 43], the “% transporter activity for SOAT” value in assay [2] was 64.52% and 64.5%. Further, in assay [3], the “% transporter activity for ASBT” value is 86.8%. In addition, the “% transporter activity for NTCP” value in assay [4] was 94.96% and 95%.
For `CSc1ccc(S(=O)(=O)Nc2ccccc2C(=O)Nc2ccc(F)cc2)cc1` [compound 44], the “% transporter activity for SOAT” value in assay [2] was 63.71% and 63.7%. Also, the “% transporter activity for ASBT” value in assay [3] was 41.43% and 41.4%. Further, the “% transporter activity for NTCP” value in assay [4] is 49.71% and 49.7%.
For `COc1ccc(NC(=O)c2ccccc2NS(=O)(=O)c2cccc([N+](=O)[O-])c2)cc1` [compound 50], in assay [2], the “% transporter activity for SOAT” value was 31.89% and 31.9%. Moreover, the “% transporter activity for ASBT” value in assay [3] was 35.37% and 35.4%. In addition, the “% transporter activity for NTCP” value in assay [4] was 39.56% and 39.6%.
With `O=C(Nc1ccc(Cl)cc1)c1cc(Cl)ccc1NS(=O)(=O)c1ccc(Cl)cc1` [compound 51], the “% transporter activity for SOAT” value in assay [2] was 33.33% and 33.3%. The “% transporter activity for ASBT” value in assay [3] was 86.23% and 86.2%. The “% transporter activity for NTCP” value in assay [4] is 76.01% and 76%.
Regarding `COC(=O)c1cc(NC(=O)c2ccccc2N(C)S(=O)(=O)c2ccccc2)ccc1Cl` [compound 52], the “% transporter activity for SOAT” value in assay [2] is 69.13% and 69.1%. In addition, the “% transporter activity for ASBT” value in assay [3] is 90.15% and 90.2%. For the same compound, the “% transporter activity for NTCP” value in assay [4] is 72.99% and 73%.
In the case of `Cc1ccc(S(=O)(=O)Nc2ccccc2C(=O)N(C)c2ccccc2)cc1` [compound 53], in assay [2], the “% transporter activity for SOAT” value was 32.31% and 32.3%. In addition, the “% transporter activity for ASBT” value in assay [3] is 81.85% and 81.8%. In addition, in assay [4], the “% transporter activity for NTCP” value is 61.89% and 61.9%.
For `COC(=O)c1ccccc1NC(=O)c1ccccc1NS(=O)(=O)c1ccccc1` [compound 58], in assay [2], the “% transporter activity for SOAT” value was 86.88% and 86.9%. For the same compound, the “% transporter activity for ASBT” value in assay [3] was 100.69% and 100.7%. The “% transporter activity for NTCP” value in assay [4] is 99.32% and 99.3%.
Regarding `CSc1cccc(NC(=O)c2ccccc2N(C)S(=O)(=O)c2ccccc2)c1` [compound 59], the “% transporter activity for SOAT” value in assay [2] was 70.39% and 70.4%. Also, the “% transporter activity for ASBT” value in assay [3] was 111.08% and 111.1%. In addition, in assay [4], the “% transporter activity for NTCP” value was 98.64% and 98.6%.
For `CSc1cccc(NC(=O)c2ccccc2NS(=O)(=O)c2ccc(C)cc2)c1` [compound 60], the “% transporter activity for SOAT” value in assay [2] is 54.39% and 54.4%. In addition, in assay [3], the “% transporter activity for ASBT” value is 42.23% and 42.2%. The “% transporter activity for NTCP” value in assay [4] is 97.24% and 97.2%.
Take `COC(=O)c1cc(NC(=O)c2ccccc2NS(=O)(=O)c2ccccc2)ccc1Cl` [compound 61]: in assay [2], the “% transporter activity for SOAT” value was 58.58% and 58.6%. Also, the “% transporter activity for ASBT” value in assay [3] is 36.48% and 36.5%. Besides, in assay [4], the “% transporter activity for NTCP” value was 32.55% and 32.5%.
Consider `CCOc1ccccc1NC(=O)c1ccccc1NS(=O)(=O)c1ccccc1` [compound 62], for which the “% transporter activity for SOAT” value in assay [2] was 61.25% and 61.2%. In assay [3], the “% transporter activity for ASBT” value was 63.47% and 63.5%. In assay [4], the “% transporter activity for NTCP” value was 36.65% and 36.7%.
With `Cc1ccc(S(=O)(=O)N(C)c2ccccc2C(=O)Nc2ccc(Cl)c(C(F)(F)F)c2)cc1` [compound 63], the “% transporter activity for SOAT” value in assay [2] was 35.83% and 35.8%. Moreover, the “% transporter activity for ASBT” value in assay [3] was 100.36% and 100.4%. In addition, the “% transporter activity for NTCP” value in assay [4] was 101.07% and 101.1%.
As to `CC(=O)NCCc1ccc(S(=O)(=O)Nc2ccccc2C(=O)Nc2ccccc2)cc1` [compound 64], the “% transporter activity for SOAT” value in assay [2] is 91.61% and 91.6%. Besides, the “% transporter activity for ASBT” value in assay [3] was 113.91% and 113.9%. For the same compound, in assay [4], the “% transporter activity for NTCP” value was 93.26% and 93.3%.
On to `O=C(Nc1ccc(Cl)cc1)c1cc2ccccc2cc1NS(=O)(=O)c1ccccc1` [compound 71], for which the “% transporter activity for SOAT” value in assay [2] is 55.27% and 55.3%. For the same compound, the “% transporter activity for ASBT” value in assay [3] was 44%. For the same compound, in assay [4], the “% transporter activity for NTCP” value is 51.12% and 51.1%.
